The record followed here is US10975123B2, “Mutant Akt-specific capture agents, compositions, and methods of using and making” (California Institute of Technology, priority 2014, dated 2021).

Entries after “also recorded” stand apart in the source; their conditions may differ. Where a SMILES comes first, the peptide text is derived from it. [ ]: non-standard residue; d: D form.

Assay [1] addresses T1, E17K PH Domain binding to PIP3 (Homo sapiens, UniProt P31749, E17K).
T1 construct: 2 μg of either wildtype or mutant PH Domain-GFP protein (234 nM); made in house; host or cells: HEK-293-6E (used as cell lysate, not purified)
The assay can be described thus: PIP3 agarose inhibition assay, E17K. The conditions noted are these: ligand 2.38 μM (10x protein), protein 234 nM, western blot, in words. Format: biochemical. An excerpt:
The yleaf ligand, the biligand, and the triligand were all tested for their ability to block the E17K PHD binding with PIP3. For this test, PIP3-coated resin (Echelon Biosciences) was used to mimic the PHD interaction with the cell membrane, and could be used to bind the protein as in an immunoprecipitation assay^22. The presence of an effective blocking compound would reduce the ability of the resin to capture the protein, and would thus appear as a diminished signal in the corresponding western blot assay. A control lane containing no capture agent was used to show baseline binding of the protein to the PIP3 resin. […] In an expanded study, we compared the amount of E17K and WT PH domain binding relative to the amount of added triligand (FIG. 5e).
PIP3 Agarose beads (Echelon) were used to detect for the inhibition of PH Domain binding to its substrate, PIP3, upon incubation with the anchor candidate peptide ligands. To test the inhibition of each of the ligands, anchor biligand and triligand, 20 μL of resin slurry was added to each of four tubes and washed three times with 1×TBS. Protein, 2 μg (234 nM) of E17K mutant, was preincubated for one hour at room temperature with either DMSO (no protein blank), anchor, biligand or triligand at 2.38 μM (10× in relation to protein) in 200 μL of 1×TBS. For the control, mutant PH Domain was incubated with 1×TBS and 1 μL […] to mimic the ligand conditions. These protein samples were then added to PIP3 agarose in a Spin-X tube and incubated at room temperature for two hours. The resin was washed three times with 1×TBS with 0.25% IGEPAL CA-630, spun out to dry completely, then denatured with 50 μL 3×SDS gel loading buffer for 10 min at 95° C. The gel loading buffer was spun out of the resin and detected via western blot as per the Streptavidin-Agarose Pulldowns. Inhibition was indicated by a decrease in the amount of PH Domain that was pulled down by the resin.
Expanded inhibition blots with either WT of E17K mutant protein were performed in a similar fashion. Twelve tubes of 20 μL of PIP3 agarose were washed three times with 1×TBS. 2 μg of either wildtype or mutant PH Domain-GFP protein (234 nM) in 200 uL 1×TBS were preincubated for 30 minutes with differing concentrations of triligand: 0.1 eq (23.4 nM), 1 eq (234 nM), 10 eq (2.34 μM), 100 eq (23.4 μM), and 1000 eq (234 μM). The protein and triligand solutions were then incubated with the PIP3 resin for 2 hours at room temperature. The resins were washed, eluted, and blotted as per all PH Domain western blots.
(In general: Immunoblotting shows a protein as a band on a membrane.)

Assay [2] relates to E17K 33-mer epitope vs WT 33-mer epitope (6His-tagged). The assay can be described thus: Point ELISA with anchor ligand and 33-mer epitope. The conditions noted are these: PEG-biotin-modified yleaf on neutravidin plate; epitope 100 nM-1 μM, in words. Format: binding. The method, then: The selectivity of the yleaf (SEQ ID NO: 43) peptide for the E17K 33-mer epitope was also tested in an ELISA assay format. For these assays, the WT or E17K 33-mer peptide fragments were captured using the PEG-biotin-modified yleaf (SEQ ID NO: 43) ligand immobilized on a neutravidin-coated plate.
For these assays, 100 nM Biotin-PEG5-yleaf (SEQ ID NO: 43) (FIG. 12) was immobilized for one hour on a neutravidin-coated ELISA plate (Pierce). The plate was blocked in 5% BSA in 1×TBS for one hour, then again overnight at room temperature. The immobilized anchor was then incubated with either 1 μM or 100 nM wildtype 33-mer epitope or 1 μM or 100 nM E17K mutant 33-mer epitope for one hour. The plate was washed three times with 1×TBS+0.1% Tween-20 and tapped dry. The epitope was then detected by a 1:1,000 dilution of an anti-his mouse mAb (ab18184, Abcam) for one hour, washed as above, and then detected with 1:10,000 dilution of an anti-mouse HRP-conjugated goat pAb (Abcam) for one hour. The plate was once again washed and developed with a 1:1 TMB substrate (KMB) for 15 minutes. To graph the data, the blank (epitope and antibodies binding to plate with no anchor ligand present) was subtracted from the triplicate sample values. […] The triplicate values were then graphed (FIG. 1C) with their error bars and the p-values were calculated by GraphPad.

Assay [3] has as its target T2, WT 33-mer fragment (6His-tagged) (Homo sapiens, UniProt P31749, H13K).
T2 construct: made in house; host or cells: chemical synthesis (Fmoc SPPS)
T2 sequence (P31749 1-33 H13K limits assumed): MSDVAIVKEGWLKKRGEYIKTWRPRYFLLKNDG
The assay can be described thus: HPLC-detected immunoprecipitation (pulldown), WT 33-mer. Format: binding. The conditions noted are these: 50 μM epitope, overnight 4° C., guanidine elution, in words. The source says: The label-modified yleaf (SEQ ID NO: 43) peptide (FIG. 2a and FIG. 12) was subjected to a variety of binding assays against the synthesized WT and E17K 33-mer PHD fragments prepared without the biotin label and alkyne click handle. First, the yleaf (SEQ ID NO: 43) peptide was used in immunoprecipitation assays to pull-down either the WT or E17K mutant 6His-tagged (SEQ ID NO: 4) 33-mer peptide fragments (FIGS. 13 and 14), as opposed to the full-length proteins that were used to initially validate the candidates. Typical immunoprecipitation assays involve western blotting to estimate the amount of protein binding, but 33-mer peptide fragments are not easily quantified on a blot. Because of this, the amount of peptide epitope precipitated in these assays was quantified via injection on an analytical HPLC. These assays further confirmed preferential yleaf (SEQ ID NO: 43) ligand binding to the E17K 33-mer epitope relative to the WT epitope (FIG. 15).
Pulldown assays with the biotinylated anchor and his-tagged 33-mer epitope were performed to verify epitope targeting. […] Because small peptide fragments like the 33-mer epitope are difficult to transfer to and detect on the nitrocellulose membrane as for a traditional Western blot, the amount of binding in these assays was detected via HPLC. […]

T1 sequence (P31749 5-108 E17K limits assumed): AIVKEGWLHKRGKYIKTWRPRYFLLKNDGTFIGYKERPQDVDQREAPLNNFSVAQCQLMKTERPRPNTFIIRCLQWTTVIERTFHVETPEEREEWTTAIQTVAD

Consider `CC(C)C[C@@H](NC(=O)[C@H](N)Cc1ccc(O)cc1)C(=O)N[C@H](CCC(=O)O)C(=O)N[C@H](C)C(=O)N[C@H](Cc1ccccc1)C(N)=O` [yleaf] (H-[dY][dL][dE][dA][dF]-NH2; N-terminus assumed), for which the “inhibition of E17K PH Domain binding to PIP3-coated resin” value in assay [1] is reported as “did not exhibit evidence of inhibition; also recorded: no change in E17K binding ability”. In addition, the “selectivity for E17K 33-mer fragment over WT in point ELISA” value in assay [2] was “significant selectivity for the E17K fragment over the WT”. The “amount of WT 33-mer fragment pulled down (HPLC peak)” value in assay [3] is recorded as “the least of the WT fragment”.
